Laboratory results reported in patent US20240238383A1, “ANTI-OXIDANT CONTAINING PARTICLES AND METHODS OF USE” (University of lowa Research Foundation, priority 2021, published 2024).
“Also recorded” adds a separate entry of the source.

Assays:
[1] = tested on: ex vivo human donor CEC tissues; assay: Mitochondrial respiration stress testing (extracellular flux analysis of O2 consumption, Seahorse) of donor CEC tissues stored in Optisol-GS; type: cell-based
Procedure: FIGS. 3A-3B. Ubiquinol increases mitochondrial function under oxidative stress. (A) Ex vivo human donor CECs stored in corneal storage media (Optisol-GS, Bausch+Lomb) are exposed to 3-fold greater O2 levels than in vivo CECs. Extracellular flux analysis of O2 consumption was performed in transplant-suitable ex vivo human donor CEC tissues stored for 12 days (average) in media supplemented with 10 μM free ubiquinol (dissolved in ethanol at 37° C.) for the last 5 days of storage (N=13) compared to same-donor controls (N=13). […] (B) The presence of αvβ3 on B4G12 CECs (N=3) was confirmed, indicating cRGD NPs will be a suitable delivery system for getting ubiquinol into CECs. FITC-anti-αvβ3 labeled cells were detected and counted by flow cytometry and compared to a FITC-IgG control as well as unlabeled cells. Dashed lines=injections of oligomycin (0), carbonyl cyanide-p-trifluoromethoxy-phenyl-hydrazone (F), antimycin A/rotenone (R/A). Error bars=SEM. ****P<0.0001. SRC, spare respiratory capacity.
Supplementing Optisol-GS with free ubiquinol increases mitochondrial function in donor CECs. Mitochondrial respiration stress testing (extracellular flux analysis of O2 consumption, Seahorse XFe24, Agilent) was performed in transplant-suitable ex vivo human donor CEC tissues stored for 12 days (average) in media supplemented with 10 μm free ubiquinol (dissolved in ethanol at 37 °C) for the last 5 days of storage compared to same-donor ethanol-only controls (N=13 each) (Greiner et al., 2015). […] Although free ubiquinol improved CEC mitochondrial function, ethanol and heat were required to bring it into solution and it was impractical to handle in standard industry conditions. Therefore, ubiquinol can be used to rescue mitochondrial function from storage-related oxidative stress but needs increased delivery. Given the positive impact of ubiquinol treatment on CECs stored at the end of conventional storage (12-14 days), increasing ubiquinol delivery may permit testing for benefit at extended PT (21 days, a 50% increase in PT).

[2] = tested on: cultured FECD CECs; assay: RSL3/erastin-induced ferroptosis assay, cell viability by MTS, cultured FECD CECs; type: cell-based, human
Procedure: (§1) FIGS. 4A-4C. FECD CECs are more susceptible to ferroptosis than B4G12 control CECs. (A) Basal lipid peroxidation, as measured by C11 BODIPY, is 57% higher in cultured FECD CECs (N=3) than B4G12 cells (N=3). […] Cultured FECD CECs (N=6) also have 4.7-fold more TFR1 mRNA than B4G12 CECs (N=9), normalized to 18S. (C) Cultured FECD CECs (N=3) and B4G12 cells (N=3) were treated with 1 μM RSL3 to induce cell death via Fe-dependent ferroptosis. The cells were also treated with 100 μM of a Fe chelator, deferoxamine (DFO). Cell viability was measured using MTS assays over 8 hours.
FIGS. 5A-5B. FECD-associated ferroptosis is prevented by ubiquinol nanoparticles (NPs) and SOD2 supplementation. […] After incubating another 24 hours (68 hours total), cell viability in each culture was quantified using MTS assays.
(§2) Basal levels of lipid peroxidation and cytosolic Fe are higher in human FECD CECs than control CECs. […] One experiment assessed lipid peroxidation directly. Cultured FECD CECs and control CECs (B4G12 cells) were labeled with BODIPY and intensity was measured using flow cytometry. […] To determine whether Fe trafficking is affected in the context of FECD, TFR1 was quantified, which has been identified as an indicator of ferroptosis (Stockwell et al., 2017; Feng et al., 2020). […]

[3] = Optisol-GS at 4° C. over 4 days
Procedure: Samples of Optisol-GS are collected daily. Concentrations (μg drug/total protein) of ubiquinol and its oxidized form ubiquinone are measured using HPLC. Coenzyme Q9 (CoQ9) is the internal standard.

[4] = cited from earlier work
[5] = tested on: B4G12 CECs; assay: RSL3/erastin-induced ferroptosis / cell death assay, cell viability by MTS, B4G12 CECs; type: cell-based, human
Procedure: as §1
FIGS. 8A-8B. Nanoparticle targeting and efficacy. […] FITC-anti-αvβ3 labeled cells were detected and counted by flow cytometry and compared to a FITC-IgG control as well as unlabeled cells. […] After incubating another 24 hours (68 hours total), cell viability in each culture was quantified using MTS assays. […]
as §2

[6] = tested on: Col8a2^L450W mice; details: 7 mg/ml in water vs water alone; cited from earlier work
[7] = 10 μM free ubiquinol for last 5 days of 12 days (average) storage, vs same-donor controls, N=13

COc1c(O)c(C)c(C/C=C(\C)CC/C=C(\C)CC/C=C(\C)CC/C=C(\C)CC/C=C(\C)CC/C=C(\C)CC/C=C(\C)CC/C=C(\C)CC/C=C(\C)CCC=C(C)C)c(O)c1OC [free ubiquinol, ubiquinol]
increase in maximal respiration [1, 7]: 93%
increase in spare respiratory capacity [1, 7]: 174%
mitochondrial respiration / mitochondrial function ([1]; free ubiquinol in corneal storage media vs controls): enhance mitochondrial function; also recorded: increased mitochondrial respiration compared to controls; also recorded: significantly increased mitochondrial respiration and spare respiratory capacity versus controls
prevention of ferroptosis (cell viability, MTS) ([2]; antioxidant at 20 h, 1 μM RSL3 after 24 h, read after another 24 h): little efficacy
ubiquinol remaining [3]: 69.3%
solubility in water / aqueous media [4]: practically insoluble in water; also recorded: poorly soluble in aqueous media

COC(=O)c1ccc([C@@H]2c3[nH]c4ccccc4c3C[C@@H](C(=O)OC)N2C(=O)CCl)cc1 [RSL3]
sensitivity of cells to induced ferroptosis [5]: sensitive
sensitivity of cells to induced ferroptosis ([2]; cultured FECD CECs): sensitive

CC(=O)N[C@@H](CS)C(=O)O [NAC, N-Acetyl-L-cysteine]
CEC death associated with ER stress and oxidative stress [6]: prevented CEC death
clinical markers of CEC health [6]: increase clinical markers of CEC health
